“Also recorded” adds a separate entry of the source. Structures can show the parent of a compound that is named as a salt.
Assays:
[1] = tested on: KOPN8 cells; assay: alamarBlue cytotoxicity assay, single-drug IC50, 48 h; assay type: cell-based; settings: Homo sapiens, KOPN-8
Procedure: Cytotoxicity was assessed using alamarBlue assays (Life Technologies, Grand Island, N.Y.; used for IC50 determinations and all drug combinations except the drug combination screen (method described separately below)) or Trypan Blue dye exclusion (Life Technologies, Grand Island, N.Y.; used only for experiments using inhibitors that could interfere with alamarBlue assay performance (NAC, Tiron, DFO)).
Cell lines were seeded in 96-well tissue culture plates at 10^4 cells per well (myeloid leukemia lines) or 2×10^4 cells per well (lymphoid leukemia lines) in culture medium, followed by addition of drugs at the indicated concentrations. 2-4 wells per plate containing media-only were included for background subtraction. Peripheral wells were filled with sterile water to minimize the effects of evaporation.
MOLM14 cells were treated with each of these drugs, alone and in combination with ART-838 or AS at an equipotency ratio based on the IC50s for each drug (Table 1). In Table 1, KOPN8 and MOLM14 cell lines were treated with a range of concentrations of each drug for 48 h then cytotoxicity was measured via alamarBlue assay. Results were normalized to cells treated with vehicle (≦0.5% DMSO) alone. IC50s were calculated using CompuSyn software and represent the means of at least three experiments performed in triplicate. Addition of ART-838 or AS enhanced the cytotoxicity of all six tested drugs across a range of concentrations (FIG. 2). Drug interactions were typically most favorable (more additive/synergistic or less antagonistic) at higher doses.

[2] = tested on: MOLM14 cells; assay: ROS - mitochondrial superoxide (MitoSOX flow cytometry); assay type: cell-based, human; settings: for effect on AS-induced superoxide generation: MOLM14, combined with AS, 2.25x IC50s; for effect on AS-induced superoxide generation / effect on ART-838-induced superoxide generation: 16 h; for effect on ART-838-induced superoxide generation: MOLM14, combined with ART-838, 2.25x IC50s
Procedure: FIGS. 4A-4D. […] CIs were computed as described above. CI<1 indicates synergy, CI=1, additivity, CI>1, antagonism. […] Cells were then loaded with 5 μM MitoSox for 30 min, washed, and analyzed by flow cytometry for MitoSox fluorescence (indicating mitochondrial superoxide) in the FL2 channel. […] Error bars represent the SEM of three independent experiments.

[3] = tested on: MOLM14-luc AML xenografts; assay: Subcutaneous MOLM14-luc xenograft growth in NSG mice (ARA with ART-838); assay type: in vivo; settings: ARA 40 mg/kg/d i.p. plus ART-838 200 mg/kg/d p.o.
Procedure: FIG. 14. ART-838 enhanced in vivo efficacy of ARA against acute leukemia xenografts in NSG mice. NSG mice transplanted subcutaneously with luciferase labeled MOLM14 (MOLM14-luc) AML cells, were treated with vehicle, ARA (“Ara-C”), ART-838 or ART-838 plus ARA starting on day 17 after transplantation. Ara-C (40 mg/kg/d) was given i.p. on day 17, 18, 19, 20, 21 and 24. ART-838 (200 mg/kg/d) was given p.o. on day 17, 20 and 24. Mouse tumors were measured on the indicated days.
Highly immunodeficient NSG mice, obtained originally from Jackson Laboratory (Bar Harbor, Me.), were bred and housed in the UMSOM animal facilities, and handled in a laminar flow hood under aseptic conditions. All experiment procedures and animal care were in compliance with the NIH guidelines for the Care and Use of Laboratory Animals and approved by the UMSOM Institutional Animal Care and Use Committee. ART-838 were formulated in Tween 80:ethanol (7:3, v:v) and diluted 1:10 in filtered deionized water immediately before administration. […] Mice were monitored daily and euthanized when tumors reached an estimated mass of 2000 mg (using the formula: [length×width2]/2, assuming density=1 mg/mm3).
The anti-leukemic efficacy of ART-838 plus ARA was tested in NSG mice transplanted subcutaneously with luciferase labeled MOLM14 (MOLM14-luc) AML cells. […] Mouse tumors were measured with calipers on the indicated days.

[4] = tested on: MOLM14 cells; assay: alamarBlue cytotoxicity assay, single-drug IC50, 48 h; assay type: cell-based, human
Procedure: Peripheral wells were filled with sterile water to minimize the effects of evaporation. […] Results were normalized to cells treated with vehicle (≦0.5% DMSO) alone. IC50s were calculated using CompuSyn software and represent the means of at least three experiments performed in triplicate.

[5] = tested on: MOLM14 cells; assay: Preliminary cytotoxicity of ROS/iron inhibitors (Trypan Blue dye exclusion assays); assay type: cell-based, human; settings: read-out: approximate 48-hour IC50
[6] = tested on: MOLM14 cells; assay: Drug combination analysis (Chou and Talalay), simultaneous 48 h treatment, alamarBlue; assay type: cell-based, human; settings: MOLM14, combined with AS, 2.25x single-drug IC50s
Procedure: FIGS. 2A-2B. ART-838 or AS enhanced the cytotoxicity of all six antileukemic drugs tested in MOLM14. […] Each experiment was performed three times in triplicate, and error bars represent the SEM. All panels have error bars but some are too small to be visible. Combination indices (CI) were computed for each drug combination using CompuSyn software, based on the Median Effect Principle and the CI theorem of Chou-Talalay, wherein CI=1 indicates additivity, CI<1 synergism, and CI>1 antagonism.
FIGS. 4A-4D. Effects of ART-838- and AS-containing drug combinations on MOLM14 growth and superoxide generation. […]. CIs were computed as described above. CI<1 indicates synergy, CI=1, additivity, CI>1, antagonism. […] Cells were then loaded with 5 μM MitoSox for 30 min, washed, and analyzed by flow cytometry for MitoSox fluorescence (indicating mitochondrial superoxide) in the FL2 channel. Mean fluorescence intensity (MFI) was normalized to that of vehicle control (0.5% DMSO) with no pretreatment (100%, lower dotted lines). Upper dotted lines show MFI of ART-838- or AS-treated cells. Error bars represent the SEM of three independent experiments.
For each two-drug pair, dose-response curves were generated for each drug individually and for the two drugs combined. […]. […]

[7] = tested on: MOLM14 AML xenografts; assay: Subcutaneous MOLM14 xenograft growth in NSG mice (SOR with AS); assay type: in vivo; settings: SOR plus AS p.o.
Procedure: FIG. 15. AS enhanced in vivo efficacy of Sorafenib (SOR) against acute leukemia xenografts in NSG mice. […] Drug or vehicle were given p.o. on day 3-7, 17-21, and 31-35 when possible. Mouse tumors were measured on the indicated days.
The NSG mice were obtained, maintained and handled as described in the paragraph immediately above. AS was also formulated in Tween 80:ethanol (7:3, v:v) and diluted 1:10 in filtered deionized water immediately before administration. For the human AML xenograft model, 6-12-week-old male NSG mice (>20 g) were transplanted sc with MOLM14 cells on day 0 and drug-treated via oral gavage, as specified in legend. Mice were monitored daily and euthanized when tumors reached an estimated mass of 2000 mg as described in the paragraph immediately above.
Palpable tumors appeared about 2 weeks after transplantation.

[8] = Homo sapiens, MOLM-14, MOLM14, single drug, 48 h, alamarBlue

Row | Compound | IC50 [1] [µM] | effect on AS-induced superoxide generation [2] | IC50 [4, 8] [µM] | further results
1 | Nc1ccn([C@@H]2O[C@H](CO)[C@@H](O)[C@@H]2O)c(=O)n1 [ARA, cytarabine] | 0.073 | further enhanced |  | tumor growth (tumor size on day 24) [3]: inhibited tumor growth substantially more than did either drug alone
2 | C[C@@H]1CCC2[C@@H](C)[C@@H](CC(COP(=O)(Oc3ccccc3)Oc3ccccc3)C[C@H]3O[C@@H]4O[C@@]5(C)CCC6[C@H](C)CCC([C@H]3C)[C@]64OO5)O[C@@H]3O[C@@]4(C)CCC1[C@@]23OO4 (some centres unmarked) [ART-838, artemisinin-derived trioxane diphenylphosphate dimer 838] |  |  |  | IC50 ([4]; MOLM14 (AML) cell line): 0.025 µM; mitochondrial superoxide (MitoSox MFI) ([2]; MOLM14, drug alone, 2.25x IC50, 16 h): increased; also recorded: induced superoxide to greater levels than AS
3 | CC(=O)N(O)CCCCCNC(=O)CCC(=O)N(O)CCCCCNC(=O)CCC(=O)N(O)CCCCCN [DFO, deferoxamine mesylate] |  |  |  | IC50 ([5]; Homo sapiens, MOLM-14, 48 h): ~11 µM
4 | COc1cccc2c1C(=O)c1c(O)c3c(c(O)c1C2=O)C[C@@](O)(C(=O)CO)C[C@@H]3O[C@H]1C[C@H](N)[C@H](O)[C@H](C)O1 [DOX, doxorubicin] | 0.03 | further enhanced | 0.079 | effect on ART-838-induced superoxide generation [2]: further enhanced
5 | COc1cc([C@@H]2c3cc4c(cc3[C@@H](O[C@@H]3O[C@@H]5CO[C@@H](C)O[C@H]5[C@H](O)[C@H]3O)[C@H]3COC(=O)[C@H]23)OCO4)cc(OC)c1O [ETO, etoposide] | 0.15 | further enhanced |  | effect on ART-838-induced superoxide generation [2]: further enhanced
6 | C[C@]12O[C@H](C[C@]1(O)CO)n1c3ccccc3c3c4c(c5c6ccccc6n2c5c31)CNC4=O [LES, lestaurtinib] | 0.045 |  | 0.003 | Combination index (CI), interaction [6]: 1.5
7 | CO[C@@H]1[C@H](N(C)C(=O)c2ccccc2)C[C@H]2O[C@]1(C)n1c3ccccc3c3c4c(c5c6ccccc6n2c5c31)C(=O)NC4 [MID, midostaurin] | 0.21 |  |  | 
8 | CC(=O)N[C@@H](CS)C(=O)O [NAC] |  |  |  | IC50 ([5]; MOLM14, preliminary experiments): ~25000 µM
9 | CNC(=O)c1cc(Oc2ccc(NC(=O)Nc3ccc(Cl)c(C(F)(F)F)c3)cc2)ccn1 [SOR, sorafenib] | 4.2 | reduced | 0.004 | tumor growth (tumor size on day 24) [7]: inhibited tumor growth substantially more than did either drug alone
10 | O=S(=O)(O)c1cc(O)c(O)c(S(=O)(=O)O)c1 [Tiron] |  |  |  | IC50 ([5]; Homo sapiens, MOLM-14, 48 h, MOLM14, preliminary experiments): ~1000 µM

From US9918972B2, “Treatment of leukemia with artemisinin derivatives and combinations with other antineoplastic agents” (UNIVERSITY OF MARYLAND, BALTIMORE, priority 2014, dated 2018)
